Assay results taken from ChEMBL document CHEMBL1201862, “PubChem BioAssay data set” (2004).
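Values below derive from 48-hour exposures of cells grown in 96-well plates, with endpoints linearly interpolated between the two concentrations bracketing the appropriate inhibition level. At the GI50, growth is halved.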 Active and inactive are the calls of the source. Rule as the data show it: active = GI50 up to about 1.1 µM and inactive = higher.

Legend:
Test in all cases: DTP human tumour cell line panel, 48 h
SF-539 = test system: SF-539
ACHN = test system: ACHN
COLO 205 = test system: COLO 205
DMS-273 = test system: DMS-273
U-251 = test system: U-251
UACC-257 = test system: UACC-257
MOLT-4 = test system: MOLT-4
SW-620 = test system: SW-620
SNB-19 = test system: SNB-19
OVCAR-3 = test system: OVCAR-3
CCRF-CEM = test system: CCRF-CEM
Malme-3M = test system: Malme-3M
SK-MEL-5 = test system: SK-MEL-5
OVCAR-8 = test system: OVCAR-8
RXF 393 = test system: RXF 393
SF-295 = test system: SF-295
KM-20L2 = test system: KM-20L2
NCI-H23 = test system: NCI-H23
M19-MEL = test system: M19-MEL
SNB-75 = test system: SNB-75
A498 = test system: A498
SK-MEL-2 = test system: SK-MEL-2
TK-10 = test system: TK-10
M14 = test system: M14
HOP-62 = test system: HOP-62
LXFL 529 = test system: LXFL 529
HL-60 = test system: HL-60
SK-OV-3 = test system: SK-OV-3
IGROV-1 = test system: IGROV-1
SF-268 = test system: SF-268
HCC 2998 = test system: HCC 2998
SNB-78 = test system: SNB-78
UO-31 = test system: UO-31
OVCAR-4 = test system: OVCAR-4
SN12C = test system: SN12C
K562 = test system: K562
HT-29 = test system: HT-29
LOX IMVI = test system: LOX IMVI
A549 = test system: A549
HCT-15 = test system: HCT-15
KM12 = test system: KM12
NCI-H460 = test system: NCI-H460
XF498 = test system: XF498
EKVX = test system: EKVX
OVCAR-5 = test system: OVCAR-5
SK-MEL-28 = test system: SK-MEL-28
RPMI-8226 = test system: RPMI-8226
HOP-92 = test system: HOP-92
DMS-114 = test system: DMS-114
HCT-116 = test system: HCT-116
DLD-1 = test system: DLD-1
NCI-H226 = test system: NCI-H226
UACC-62 = test system: UACC-62
786-0 = test system: 786-0

## CC(=O)O[C@H]1CC[C@@]2(C)C(=CC[C@H]3C(CC#N)[C@@](C)(C#N)CCC32)C1 (some centres undefined)
SF-539
  GI50: > 100 µM (inactive)
ACHN
  GI50: > 100 µM (inactive)
COLO 205
  GI50: > 100 µM (inactive)
DMS-273
  GI50: > 100 µM (inactive)
U-251
  GI50: 74 µM (inactive)
UACC-257
  GI50: > 100 µM (inactive)
MOLT-4
  GI50: > 100 µM (inactive)
SW-620
  GI50: > 100 µM (inactive)
SNB-19
  GI50: > 100 µM (inactive)
OVCAR-3
  GI50: > 100 µM (inactive)
CCRF-CEM
  GI50: > 100 µM (inactive)
Malme-3M
  GI50: > 100 µM (inactive)
SK-MEL-5
  GI50: > 100 µM (inactive)
OVCAR-8
  GI50: > 100 µM (inactive)
RXF 393
  GI50: > 100 µM (inactive)
SF-295
  GI50: > 100 µM (inactive)
KM-20L2
  GI50: > 100 µM (inactive)
NCI-H23
  GI50: > 100 µM (inactive)
M19-MEL
  GI50: > 100 µM (inactive)
SNB-75
  GI50: 69.8 µM (inactive)
A498
  GI50: 38.5 µM (inactive)
SK-MEL-2
  GI50: > 100 µM (inactive)
TK-10
  GI50: > 100 µM (inactive)
M14
  GI50: > 100 µM (inactive)
HOP-62
  GI50: > 100 µM (inactive)
LXFL 529
  GI50: > 100 µM (inactive)
HL-60
  GI50: > 100 µM (inactive)
SK-OV-3
  GI50: > 100 µM (inactive)
IGROV-1
  GI50: > 100 µM (inactive)
SF-268
  GI50: > 100 µM (inactive)
HCC 2998
  GI50: > 100 µM (inactive)
SNB-78
  GI50: 47.6 µM (inactive)
UO-31
  GI50: > 100 µM (inactive)
OVCAR-4
  GI50: > 100 µM (inactive)
SN12C
  GI50: > 100 µM (inactive)
K562
  GI50: > 100 µM (inactive)
HT-29
  GI50: > 100 µM (inactive)
LOX IMVI
  GI50: > 100 µM (inactive)
A549
  GI50: > 100 µM (inactive)
HCT-15
  GI50: > 100 µM
KM12
  GI50: > 100 µM (inactive)
NCI-H460
  GI50: > 100 µM (inactive)
XF498
  GI50: > 100 µM (inactive)
EKVX
  GI50: > 100 µM (inactive)
OVCAR-5
  GI50: > 100 µM (inactive)
SK-MEL-28
  GI50: > 100 µM (inactive)
RPMI-8226
  GI50: > 100 µM (inactive)
HOP-92
  GI50: 16.1 µM (inactive)
DMS-114
  GI50: > 100 µM (inactive)
HCT-116
  GI50: > 100 µM (inactive)
DLD-1
  GI50: > 100 µM (inactive)
NCI-H226
  GI50: > 100 µM (inactive)
UACC-62
  GI50: > 100 µM (inactive)
786-0
  GI50: > 100 µM (inactive)
